# From patent US11103520B2, “Analogs of N-acetlyglucosamine and uses thereof” (THE REGENTS OF THE UNIVERSITY OF CALIFORNIA, priority 2014, dated 2021)
# “Also recorded” adds a separate entry of the source.
# What was measured:
# [1] = test system: pediatric treatment-resistant inflammatory bowel disease patients; conditions: oral GlcNAc; remission for approximately 2 years; cited from earlier work
# [2] = test system: C57BL/6 mice; test: EAE in C57BL/6 mice, oral GlcNAc after disease onset; type: in vivo, mouse
# Experimental: FIG. 7A is a graph that plots mean clinical EAE score as a function of days after disease onset for control and treated groups of mice. […] Error bars in FIGS. 7A and 7D represent the means±S.E. of duplicate or greater values unless otherwise stated.
# The data plotted in FIG. 7A was obtained from experiments in which EAE was induced in C57BL/6 mice by immunization with MOG 35-55 peptide emulsified in Complete Freund's adjuvant and pertussis toxin. GlcNAc mice were treated orally with GlcNAc by supplementing the drinking water at 0.25 mg/ml starting on the second day after disease onset and continued for the duration of the study and control mice were given drinking water not supplemented with GlcNAc (n=9 per control group, n=7 per GlcNAc group). Day 1 indicates the first day of disease onset. Mice were examined daily for clinical signs of EAE over the next 30 days with the observer blinded to treatment conditions and scored daily as follows: 0, no disease; 1, loss of tail tone; 2, hindlimb weakness; 3, hindlimb paralysis; 4, forelimb weakness or paralysis and hindlimb paralysis; 5, moribund or dead. Mean clinical scores per group daily were compared by the Mann-Whitney U test. […] Error bars in FIGS. 7A and 7D represent the means±S.E. of duplicate or greater values unless otherwise stated.
# [3] = test system: human T cells; test: CD25 and CD69 expression in human T cells stimulated with α-CD3; type: cell-based; conditions: FIG. 11
# From the text: FIG. 12A is a graph that plots CD25 expression (%) in human T cells as a function of α-CD3 and GlcNAc/GlcNAc 6-acetate concentrations. FIG. 12B is a graph that plots CD69 expression (%) in human T cells as a function of α-CD3 and GlcNAc/GlcNAc 6-acetate concentrations.
# [4] = cited from earlier work
# [5] = test system: 2D2 TCR transgenic mice; test: EAE in 2D2 TCR transgenic mice, oral GlcNAc after disease onset; type: in vivo, mouse; conditions: oral 0.25 mg/ml after onset
# From the text: Day 1 indicates the first day of disease onset. […] Mean clinical scores per group daily were compared by the Mann-Whitney U test.
# [6] = test system: mice immunized with MOG 35-55 peptide; test: Oral GlcNAc in mice immunized with MOG 35-55 peptide, splenocytes re-stimulated in culture; type: in vivo, mouse
# Experimental: The data plotted in FIG. 6A was obtained from experiments in which splenocytes were isolated from mice and cultured in vitro with the indicated concentrations of GlcNAc under resting or activated (1000 ng/ml anti-CD3) conditions for 3 days, stained with L-PHA-FITC in triplicate, and analyzed by FACS. The data plotted in FIGS. 6B-6E were obtained from experiments in which mice were immunized with the indicated amounts of MOG 35-55 peptide emulsified in Complete Freund's adjuvant and treated with GlcNAc at the same time by supplementing their drinking water at 0.25 mg/ml GlcNAc and control mice that were immunized with the indicated amounts of MOG 35-55 peptide but not treated with GlcNAc. […] Although not wishing to be bound by any particular theory, the reduction in CD25^+T cell blasts at the highest antigen concentrations is consistent with the explanation that the reduction is secondary to the observed increase in cell death, consistent with antigen-induced cell death at high antigen stimulation levels.
# [7] = test system: non-obese diabetic mice; conditions: oral, initiated prior to disease onset; cited from earlier work
# [8] = test system: peripheral blood mononuclear cells; conditions: induced by MS-associated MGAT1 variant; cited from earlier work
# [9] = test system: N-glycan branching; conditions: in vitro; cited from earlier work
# [10] = test system: myelin-reactive T cells; conditions: T cells treated in vitro, transferred into naïve mice; cited from earlier work
# [11] = test system: humans; conditions: supplement use for many years; cited from earlier work
# [12] = test system: animals; conditions: in vivo; cited from earlier work
# [13] = test system: human T cells; test: N-glycan branching (L-PHA) in human T cells; type: cell-based; conditions: PMA/Ionomycin stimulation, FIG. 9 and FIG. 10
# From the text: Relative L-PHA (%) in human T cells is plotted as a function of PMA/Ionomycin stimulation and GlcNAc/GlcNAc-diacetate concentrations.
# Relative L-PHA (%) in human T cells is plotted as a function of PMA/Ionomycin stimulation and GlcNAc/GlcNAc-monoacetate concentrations.
# [14] = test system: C57/BL6 mice immunized with MOG35-55 peptide; test: Oral treatment, N-glycan branching in mouse T cells in vivo; conditions: 1 mg/mL in drinking water, five days post immunization, CD4+ blasts
# Experimental: Ten-week old female C57/BL6 were immunized with 100 μg of MOG35-55 peptide in a 1:1 mixture with CFA. Groups were non-immunized (n=2), immunized and given drinking water alone (n=3), immunized and given GlcNAc at 1 mg/mL in drinking water (n=3), or immunized and given G-6-A at 1 mg/mL in drinking water (n=3). Splenocytes were harvested five days post immunization, and labeled for FACS analysis. For GlcNAc and G-6-A treated groups, each mouse drank an average of 3 mL per day. Data shown is gated on a blasting region on CD4^+ cells.
# [15] = test system: mouse T cells; test: Mouse splenocyte cultures (L-PHA, CD69, CFSE proliferation); type: cell-based; conditions: splenocytes, anti-CD3 1 μg/mL; FIG. 15
# Experimental: FIG. 15A is a graph illustrating splenocytes from C57/BL6 female (n=6, 8-24 weeks old) or male (n=5, 10-13 weeks old) mice after culturing in the presence of anti-CD3 (1 μg/mL). Cells were collected on day 3, and labeled for FACS analysis. FIG. 15B is a series of graphs illustrating in vitro cultures of splenocytes either un-stimulated (resting) or anti-CD3 (1 μg/mL) activated. G-6-A (20 mM) and or GlcNAc (40 mM). Cells were harvested over a three-day time course, and labeled for FACS analysis. FIG. 15C is a graph illustrating in vitro stimulated splenocytes (anti-CD3 at 1 μg/mL) that were cultured for three-days and labeled for FACS analysis of the T cell activation marker CD69 at the time points indicated. […] Splenocytes were labeled with 1 uM of CFSE prior to in vitro anti-CD3 (1 μg/mL) activation for three-days. Overlaying histograms is on gated CD4+ cells.
# Cells were collected on day 3, and labeled for FACS analysis. Data shown is on gated CD4^+ cells, and percent changes of L-PHA MFI were normalized to a media only control.
# G-6-A (20 mM) and or GlcNAc (40 mM). Cells were harvested over a three-day time course, and labeled for FACS analysis. Data shown is on gated CD4^+ cells, and percent changes of L-PHA MFI were normalized to a media only control.
# Data shown is on gated CD4^+ cells. […]
# [16] = oral, 0.25 mg/ml in drinking water, 14 days, vs control mice
structure (smiles),measurement,setting,value
"CC(=O)N[C@@H](C=O)[C@@H](O)[C@H](O)[C@H](O)CO [GlcNAc, 2-(acetylamino)-2-deoxy-D-glucose]",children in clinical remission,[1],8 of 12
same,clinical course of EAE (mean clinical score),"[2]; C57BL/6 mice, oral 0.25 mg/ml in drinking water from second day after onset",attenuates the clinical course of experimental autoimmune encephalomyelitis (EAE)
same,"production of pro-inflammatory cytokines IFN-γ, TNF-α, IL-17, IL-22",[2]; re-stimulation with MOG 35-55 peptide in vitro,"inhibited production of pro-inflammatory cytokines IFN-γ, TNF-α, IL-17, and IL-22"
same,N-glycan branching in T cells (L-PHA staining),[2]; representative mice at peak of disease,increased N-glycan branching in T cells
same,CD25+ T cells,"[2]; representative mice at peak of disease, vs control mice",significant reduction in CD25^+T cells
same,CD25 expression (%),[3],N-acetylglucosamine 6-acetate inhibits CD25 and CD69 expression to greater effect than GlcNAc
same,CD69 expression (%),[3],N-acetylglucosamine 6-acetate inhibits CD25 and CD69 expression to greater effect than GlcNAc
same,membrane permeability,[4],low membrane permeability (poor cell entry)
same,"clinical course of EAE, moderate-severe disease",[5]; 2D2 TCR transgenic mice scored ≤4,attenuates the clinical course of EAE in moderate-severe disease
same,"clinical course of EAE, lethal disease",[5]; 2D2 TCR transgenic mice with scores of 5,not disease with rapid lethal progression
same,"secretion of Th1 (IFN-γ, TNF-α) and Th17 (IL-17, IL-22) cytokines","[6]; oral treatment in vivo, re-stimulation with MOG 35-55 in vitro",inhibited secretion of Th1 cytokines (IFN-γ and TNF-α) and Th17 cytokines (IL-17 and IL-22)
same,CD4+CD25+FoxP3+ regulatory T cells,[6]; [16],promoted development of CD4^+CD25^+FoxP3^+ regulatory T cells
same,CD25+ T cells upon re-stimulation with MOG 35-55 peptide,[6]; [16],reduced CD25^+T cells
same,spontaneous autoimmune diabetes,[7],suppress spontaneous autoimmune diabetes
same,N-glycan branching deficiency and T cell hyper-proliferation,[8],rescued N-glycan branching deficiency and T cell hyper-proliferation
same,N-glycan branching with increasing concentration,[9],only enhance N-glycan branching
same,EAE after adoptive transfer of treated T cells,[10],inhibited EAE when these cells were adoptively transferred into naïve mice
same,adverse effects in humans,[11],without reported adverse effects
same,toxicity in chronic animal studies,[12],no associated toxicity
same,N-glycan branching (Relative L-PHA (%)),[13],increases N-glycan branching to greater effect than N-acetylglucosamine-diacetate compounds; also recorded: N-acetylglucosamine 6-acetate increases N-glycan branching to greater effect than GlcNAc
CC(=O)N[C@H]1C(O)O[C@H](CO)[C@@H](O)[C@@H]1OC(C)=O (stereo partly shown) [N-acetylglucosamine 3-acetate],N-glycan branching (Relative L-PHA (%)),[13],N-acetylglucosamine 6-acetate increases N-glycan branching to greater effect than GlcNAc or N-acetylglucosamine 3-acetate
CC(=O)N[C@H]1C(O)O[C@H](COC(C)=O)[C@@H](O)[C@@H]1O (stereo partly shown) [N-acetylglucosamine 6-acetate],CD25 expression (%),[3],inhibits CD25 and CD69 expression to greater effect than GlcNAc
same,CD69 expression (%),[3],inhibits CD25 and CD69 expression to greater effect than GlcNAc
same,N-glycan branching in mouse T cells in vivo,[14],increases N-glycan branching in mouse T cells in vivo
same,effectiveness in mouse T cells,[15],more effective than GlcNAc in mouse T cells
same,N-glycan branching (Relative L-PHA (%)),[13],increases N-glycan branching to greater effect than GlcNAc or N-acetylglucosamine 3-acetate
N[C@H]1C(O)O[C@H](CO)[C@@H](O)[C@@H]1O (stereo partly shown) [glucosamine],N-glycan branching with increasing concentration,[9],initially increasing but subsequently decreasing N-glycan branching
"CC(=O)N[C@H]1C(O)O[C@H](COC(C)=O)[C@@H](O)[C@@H]1OC(C)=O (stereo partly shown) [N-acetylglucosamine 3,6 diacetate]",N-glycan branching (Relative L-PHA (%)),[13],GlcNAc increases N-glycan branching to greater effect than N-acetylglucosamine-diacetate compounds
"CC(=O)N[C@H]1C(O)O[C@H](COC(C)=O)[C@@H](OC(C)=O)[C@@H]1O (stereo partly shown) [N-acetylglucosamine 4,6 diacetate]",N-glycan branching (Relative L-PHA (%)),[13],GlcNAc increases N-glycan branching to greater effect than N-acetylglucosamine-diacetate compounds
"CC(=O)N[C@H]1C(O)O[C@H](CO)[C@@H](OC(C)=O)[C@@H]1OC(C)=O (stereo partly shown) [N-acetylglucosamine 3,4 diacetate]",N-glycan branching (Relative L-PHA (%)),[13],GlcNAc increases N-glycan branching to greater effect than N-acetylglucosamine-diacetate compounds
"CC(=O)N[C@H]1C(OC(C)=O)O[C@H](COC(C)=O)[C@@H](OC(C)=O)[C@@H]1OC(C)=O (stereo partly shown) [GlcNAc-tetraacetate, N-acetylglucosamine tetraacetate]",membrane permeability,[4],increased membrane permeability as compared with GlcNAc
